Experimental data as given in patent US20230364057A1, “BACTERIAL DNA GYRASE INHIBITORS AND METHODS OF USE THEREOF” (THE FLORIDA INTERNATIONAL UNIVERSITY BOARD OF TRUSTEES, priority 2022, published 2023).
≈ marks a conversion by molar mass, not a printed value. Where two headings read alike, the source gives them in different places.

What was measured:
in vitro [1] = conditions: mouse
in vitro [2] = conditions: human
E. coli DNA gyrase [3] = target: T1, E. coli DNA gyrase (Escherichia coli (strain K12), UniProt P0AES4+P0AES6); assay: Agarose gel-based DNA gyrase inhibition assay; assay type: biochemical
Experimental: 100 ng of DNA gyrase was used to supercoil the rx pAB1 in the presence of different concentrations of a gyrase inhibitor. […] Samples were analyzed by electrophoresis in 1% w/v agarose gels followed by ethidium bromide staining and photographed under UV light.

E. coli DNA gyrase [4] = target: T1, E. coli DNA gyrase; assay: biochemical; assay type: biochemical
MRSA = assay: Minimum inhibitory concentration, broth microdilution; conditions: Staphylococcus aureus, MRSA
E. coli DNA gyrase [5] = target: T1, E. coli DNA gyrase; assay: E. coli DNA gyrase ATPase assay; assay type: biochemical
Experimental: E. coli DNA gyrase ATPase assays were performed in 60 µL of 1 ×gyrase ATPase buffer (10 mM Tris.HCl (pH 7.5), 0.2 mM EDTA, 1 mM magnesium chloride, 1 mM DTT, and 2% (w/v) glycerol) containing 50 nM E. coli DNA gyrase, 200 ng rx pAB1, 0.8 mM Phosphoenol pyruvate, 1.2 units of Pyruvate kinase, 1.7 units of lactate dehydrogenase, and 0.4 mM of NADH at 37° C. After the reaction mixtures are incubated on ice for 5 minutes, 2 mM of ATP is added to initiate the reaction. Absorbance at OD340nm is monitored for up to 30 minutes at 37° C. in a spectrophotometer.

S. aureus (ATCC 14775) = assay: Minimum inhibitory concentration, broth microdilution; conditions: Staphylococcus aureus
Mtb DNA gyrase = Mtb DNA gyrase (Mycobacterium tuberculosis (strain ATCC 25618 / H37Rv), UniProt P9WG45+P9WG47); assay: Mtb DNA gyrase inhibition assay (gel-based); assay type: biochemical; conditions: Table 5, Mtb gyrase; read-out: IC50 (µM) Mtb
Experimental: The IC50 against E. coli (A) and Mtb (C) gyrase were determined using the gel-based gyrase inhibition assays. The gyrase mediated DNA cleavage assays (B and D) were performed using pBR322. (A) 229 inhibits E. coli gyrase. Lane 1, rx pAB1. […] Lane 1, rx pAB1. […] 100 µM of CPDs were used. Symbols rx, nk, In, and sc represent relaxed, nicked, linear, and supercoiled DNA, respectively.
Agarose gel-based DNA gyrase inhibition assays were performed in 30 µL of 1 ×gyrase buffer (35 mM Tris-HCl, 24 mM KCl, 4 mM MgCl2, 2 mM DTT, 1.75 mM ATP, 0.1 mg/mL BSA, 6.5% glycerol, pH7.5) containing 400 ng of rx pAB1 at 37° C. 100 ng of DNA gyrase was used to supercoil the rx pAB1 in the presence of different concentrations of a gyrase inhibitor. After 15 minutes of incubation with the inhibitor at 37° C., all reactions were stopped with 1 µL of stop solution (3% SDS and 250 mM EDTA). Samples were analyzed by electrophoresis in 1% w/v agarose gels followed by ethidium bromide staining and photographed under UV light.

Mtb = Mtb whole cell assay (% inhibition, MIC); assay type: cell-based, Mycobacterium tuberculosis; conditions: Mycobacterium tuberculosis; Table 5 (same values in Table 6 at 20 µM)
E. coli (ATCC 25922) = assay: Minimum inhibitory concentration, broth microdilution; conditions: Escherichia coli, ATCC25922, read-out: Minimum Inhibitory Concentration E. coli, Tables 3a-3c
B. subtilis (ATCC 6633) = assay: as above; conditions: Bacillus subtilis, ATCC6633, read-out: Minimum Inhibitory Concentration B.subtilis
[6] = read-out: Minimum Inhibitory Concentration S.aureus MRSA
[7] = ATCC14775, read-out: Minimum Inhibitory Concentration S.aureus
[8] = IC50 (50-200 µM), bin of Table 2

Q: With `CSc1nc(SCC(=O)O)c2sc3nc(-c4ccccc4)c4c(c3c2n1)CCC4` [Compound 19] as the compound, how does the IC50 (in vitro [1]) read?
A: The IC50 was over 200 µM.

Q: And the IC50 (in vitro [2])?
A: The IC50 was over 200 µM.

Q: What about the “inhibition of E. coli DNA gyrase activities” value (E. coli DNA gyrase [3]; 50 µM of compounds) of the same compound?
A: Its value is “completely inhibited”.

Q: What about the “inhibition of E. coli DNA gyrase activities” value (E. coli DNA gyrase [3]; 200 µM of compounds) of the same compound?
A: The value was “completely inhibited”.

Q: With `CC(=O)Nc1ccc(S(=O)(=O)Nc2nc3ccccc3nc2Nc2ccc(C(=O)O)c(O)c2)cc1` [Compound 30] as the compound, how does the IC50 (in vitro [1]) read?
A: Its IC50 is over 200 µM.

Q: And the IC50 (in vitro [2])?
A: The IC50 was over 200 µM.

Q: With `O=C(O)c1cccc(-c2ccc(/C=c3/sc4nc5ccccc5n4c3=O)o2)c1` [Compound 47] as the compound, how does the IC50 (in vitro [1]) read?
A: The IC50 was over 200 µM.

Q: And the IC50 (in vitro [2])?
A: Its IC50 is over 200 µM.

Q: And the “inhibition of E. coli DNA gyrase activities” value (E. coli DNA gyrase [3]; 50 µM of compounds)?
A: Its value is “completely inhibited”.

Q: What about the “inhibition of E. coli DNA gyrase activities” value (E. coli DNA gyrase [3]; 200 µM of compounds) of the same compound?
A: The value was “completely inhibited”.

Q: Which “inhibition of E. coli DNA gyrase activities” value (E. coli DNA gyrase [4]) does the source give for `Cc1c(CCC(=O)O)c(=O)oc2c(C)c3occ(-c4ccc(Br)cc4)c3cc12` [Compound 48] here?
A: The value was “potent bacterial DNA gyrase inhibitors”.

Q: And the IC50 (E. coli DNA gyrase [4]; Table 5, E. coli gyrase, read-out: IC50 (µM) EC)?
A: The IC50 was 4.2 µM.

Q: And the MIC (MRSA; read-out: MIC (µM) MRSA)?
A: The MIC was 3.1 µM (≈ 1.37 µg/mL).

Q: And the MIC (MRSA; [6])?
A: The MIC was 3.12 µM (≈ 1.38 µg/mL).

Q: What about the Ki (E. coli DNA gyrase [5]) of the same compound?
A: The Ki was 0.15 µM.

Q: What about the “inhibition of the ATPase activities of E. coli DNA gyrase” value (E. coli DNA gyrase [5]; AB-MECA and gallates at 100 µM) of the same compound?
A: Its value is “ATP competitive inhibitor”.

Q: And the MIC (S. aureus (ATCC 14775); ATCC14775, read-out: MIC (µM) SA)?
A: Its MIC is 3.1 µM (≈ 1.37 µg/mL).

Q: And the MIC (S. aureus (ATCC 14775); [7])?
A: The MIC was 3.12 µM (≈ 1.38 µg/mL).

Q: What about the “inhibition of E. coli DNA gyrase activities” value (E. coli DNA gyrase [3]; 50 µM of compounds) of the same compound?
A: Its value is “completely inhibited”.

Q: And the “inhibition of E. coli DNA gyrase activities” value (E. coli DNA gyrase [3]; 200 µM of compounds)?
A: Its value is “completely inhibited”.

Q: What about the IC50 (Mtb DNA gyrase) of the same compound?
A: Its IC50 is 57 µM.

Q: And the inhibition at 20 µM (Mtb)?
A: The inhibition at 20 µM was 38.6%.

Q: Which IC50 (E. coli DNA gyrase [4]; [8]) does the source give for `CC(=O)Nc1ccc(/C=C2\Sc3ccccc3C2=O)cc1` [Compound 54] here?
A: The IC50 was 50 to 200 µM.

Q: And the IC50 (in vitro [1])?
A: The IC50 was over 200 µM.

Q: And the IC50 (in vitro [2])?
A: The IC50 was over 200 µM.

Q: And the “inhibition of E. coli DNA gyrase activities” value (E. coli DNA gyrase [3]; 200 µM of compounds)?
A: Its value is “almost completely inhibited”.

Q: For `Cc1cc(/C=C2\SC(=S)NC2=O)c(C)n1C` [Compound 64], which IC50 (E. coli DNA gyrase [4]; [8]) is on record?
A: The IC50 was 50 to 200 µM.

Q: And the IC50 (in vitro [1])?
A: Its IC50 is over 200 µM.

Q: What about the IC50 (in vitro [2]) of the same compound?
A: The IC50 was over 200 µM.

Q: What about the “inhibition of E. coli DNA gyrase activities” value (E. coli DNA gyrase [3]; 200 µM of compounds) of the same compound?
A: The value was “completely inhibited”.

Q: For `O=C(Nc1cccc(C2=NCCN2)c1)Nc1cccc(C2=NCCN2)c1` [Compound 79], which IC50 (E. coli DNA gyrase [4]; [8]) is on record?
A: Its IC50 is 50 to 200 µM.

Q: What about the MIC (E. coli (ATCC 25922)) of the same compound?
A: The MIC was 200 µM (≈ 69.7 µg/mL).

Q: And the MIC (MRSA; [6])?
A: The MIC was 200 µM (≈ 69.7 µg/mL).

Q: And the MIC (S. aureus (ATCC 14775); [7])?
A: Its MIC is 200 µM (≈ 69.7 µg/mL).

Q: What about the MIC (B. subtilis (ATCC 6633)) of the same compound?
A: Its MIC is 100 µM (≈ 34.8 µg/mL).

Q: Which IC50 (E. coli DNA gyrase [4]; [8]) does the source give for `O=C(O)c1ccc(NN=CC=Cc2ccc([N+](=O)[O-])o2)cc1` [Compound 110] here?
A: Its IC50 is 50 to 200 µM.

Q: What about the IC50 (in vitro [1]) of the same compound?
A: Its IC50 is over 200 µM.

Q: And the IC50 (in vitro [2])?
A: Its IC50 is over 200 µM.

Q: And the “inhibition of E. coli DNA gyrase activities” value (E. coli DNA gyrase [3]; 50 µM of compounds)?
A: Its value is “potently inhibited”.

Q: With `O=C(O)c1ccc(/N=N/C2C(O)=Nc3ccc(F)cc32)cc1` (stereo not drawn) [Compound 127] as the compound, how does the MIC (MRSA; [6]) read?
A: The MIC was 50 µM (≈ 15 µg/mL).

Q: And the IC50 (in vitro [1])?
A: Its IC50 is over 200 µM.

Q: And the MIC (S. aureus (ATCC 14775); [7])?
A: Its MIC is 50 µM (≈ 15 µg/mL).

Q: What about the IC50 (in vitro [2]) of the same compound?
A: The IC50 was over 200 µM.

Q: What about the “inhibition of E. coli DNA gyrase activities” value (E. coli DNA gyrase [3]; 50 µM of compounds) of the same compound?
A: The value was “completely inhibited”.

Q: And the MIC (B. subtilis (ATCC 6633))?
A: Its MIC is 25 µM (≈ 7.48 µg/mL).

Q: For `Cc1cccc2c1N=C(O)C2/N=N/c1ccc(C(=O)O)cc1` (stereo not drawn) [Compound 128], which MIC (MRSA; [6]) is on record?
A: Its MIC is 50 µM (≈ 14.8 µg/mL).

Q: And the IC50 (in vitro [1])?
A: The IC50 was over 200 µM.

Q: What about the MIC (S. aureus (ATCC 14775); [7]) of the same compound?
A: The MIC was 50 µM (≈ 14.8 µg/mL).

Q: What about the IC50 (in vitro [2]) of the same compound?
A: The IC50 was over 200 µM.

Q: And the “inhibition of E. coli DNA gyrase activities” value (E. coli DNA gyrase [3]; 50 µM of compounds)?
A: The value was “completely inhibited”.

Q: And the MIC (B. subtilis (ATCC 6633))?
A: Its MIC is 25 µM (≈ 7.38 µg/mL).
